From patent US20050042747A1, “Hivgp120-induced bob/gpr15 activation” (priority 2001, published 2005)
“Also recorded” adds a separate entry of the source.

How the values were obtained:
[1] = test system: gp120-induced calcium signaling in HT-29 cells; test: Inhibition of gp120-induced calcium signaling in HT-29 cells; assay type: cell-based, human; settings: pretreatment
Method: Calcium studies were done on HT-29 cells and Ghost (3) cells loaded with Fluo 4. The cells were placed in Locke's buffer containing 5 μg/ml Fluo 4 AM ester (Molecular Probes) for 20 to 30 minutes, then in Locke's buffer for an additional 30 minutes before testing. Various concentrations of gp120IIIB (X4 trophic), gp120CM235 (R5 trophic), gp120mN (X4 trophic), gp12093TH975 (nonsyncytium-inducing primary isolate from an asymptomatic subject, trophism undetermined but likely R5), and gp120SF2 (X4R5 trophic), ranging from 10 nM to less than 1 pM, were added in Locke's buffer.^6 The gp120 proteins were obtained from the AIDS Research Reagent Referral Program. Some HT-29 cells were given one of the following pretreatments: 50 μg/ml anti-Bob37 overnight, 1 μg/ml pertussis toxin overnight, or 4.6 μg/ml U73122 for one hour. With the HT-29 cells only, similar tests were also performed with SDF-1, MIP-1α, MIP-1β, and RANTES rather than gp120. The cells were visualized every 4 seconds in a confocal microscope, using 488 nm argon laser excitation and detection filters appropriate for fluorescein-like dyes.
Blocking antibody experiments were done with HT-29 cells (monitoring calcium flux, microtubule loss, or transepithelial resistance), with Ghost (3) Bob cells (monitoring calcium flux) and peripheral blood mononuclear cells (monitoring calcium flux and HIV infection). Specifics of these protocols and the specific results are given herein. […] Antibody concentrations of 40 to 50 micrograms/ml overnight were needed for maximal effect.
For the first two or three days after plating, gp120 induces an immediate (within 4 seconds) calcium flux in undifferentiated HT-29 cells. The cells had previously been loaded with Fluo-4 AM ester (Molecular Probes, Eugene Oreg.) 5 micrograms/ml in the presence of Pleuronic F-127 0.02% in Locke's buffer for 30 minutes, then incubated at room temperature for an additional 30 minutes. Gp120IIIB was added while the cells were on an inverted confocal microscope using a 488 nm argon laser, with detection filters suitable for fluorescein-like dyes. […]

[2] = test system: microtubules in HT-29 cells; test: Microtubule staining (acetylated tubulin) in HT-29 cells; assay type: cell-based, human; settings: pretreatment before gp120
Method: To examine the microtubules, HT-29 cells were treated with 10 nM gp120CM235 or 50 pM gp120IIIB, then fixed one hour later in 4 g/100 ml paraformaldehyde PBS, then stained with mouse anti acetylated tubulin (5 μg/ml, Sigma) by a method similar to that given above. Some cells were pretreated with 50 μg/ml antiBob37 overnight, 1 μg/ml pertussis toxin overnight, or 4.6 μg/ml U73122 for one hour before the gp120 was added. Untreated cells were also stained.
Similarly treated undifferentiated HT-29 cells (except that Fluo-4 was not added) were fixed in paraformaldehyde phosphate buffered saline one hour after gp120 treatment.

[3] = GalCer-gp120 interactions at the air-water interface (surface pressure); assay type: binding; settings: gp120 5 nM in aqueous subphase
Method: A monomolecular film of GalCer was prepared at the air-water interface and gp120 purified from either IIIB (full squares), SEN (open circles) or 89.6 (full circles) isolates was added in the aqueous subphase at a concentration of 5 nM. The kinetics of the surface pressure increase induced by the viral glycoproteins are shown.
Galactosylceramide with an α-hydroxylated fatty acid (referred to as GalCer throughout this study) was either prepared from bovine brain (Sigma) or purified from HT-29-D4 membrane rafts (Fantini et al., 2000a). The surface pressure was measured with a microtensiometer (Kibron Inc., Finland) specially designed for studying protein-lipid interactions (Fantini et al., 2000a). The experiments were carried at 25° C. out in a laboratory equipped with a filtered air supply. A solution of GalCer was prepared extemporaneously in hexane:chloroform:methanol, 11:5:4 (v:v:v) at a concentration of 1 mg/ml. The lipid was carefully spread onto the meniscus of a pure water subphase (800 μl). The proteic ligand (GPR15/Bob peptides or HIV-1 gp120) was injected into the subphase with a 10 μl Hamilton syringe. The surface pressure was continuously measured as a function of time until reaching equilibrium corresponding to the maximal surface presure increase (Δπmax) expressed in mN/m.
In a recent study, it was shown that the interaction between GalCer and gp120 purified from HIV-1(IIIB) was very efficient, whereas gp120s from 89.6 and SEN isolates interacted very weakly (Hammache et al., 1998). The kinetics of this interaction are an important physicochemical parameter allowing the direct comparison of GalCer recognition by various gp120s. In the experiment shown in FIG. 11, gp120 purified from IIIB, SEN, or 89.6 was injected underneath a monomolecular film of GalCer at the air-water interface. The GalCer film mimics the topology of a GalCer raft as it is organized in the external leaflet of the plasma membrane. For this reason, the Langmuir film balance technique is one of the most sensitive and reliable for studying protein-glycolipid interactions (Maggio et al., 1994). […] The surface increase indicates a condensing effect of the gp120 on the lipidic film due to its interaction with GalCer molecules (Hammache et al., 1998). […] At this time however, the level of interaction indicated by the absolute increase of the surface pressure was identical to the one of gp120(IIIB). […] The GalCer-binding capacity of gp120(SEN) was reevaluated and shown to occur much more slowly, but not less efficiently, than of gp120(IIIB).

[4] = test system: HT-29-D4 cells; test: Transepithelial resistance (TEER) of differentiated HT-29-D4 cells; assay type: cell-based, human; settings: for TEER: 50 nM, serum-containing medium, mean SD of 4 experiments; for decrease of transepithelial resistance: after 16 hr
[5] = test system: apical sodium/glucose cotransporter (SGLT1); test: Sodium-dependent glucose transport activity (ΔIsc after α-methylglucose) in HT-29-D4 cells; assay type: cell-based, human; settings: for ΔIsc after α-methylglucose treatment: 50 nM, 3 mM α-methylglucose
Method: HT-29-D4 cells were cultured in two-compartment cell culture chambers on a polycarbonate filter (Transwell-clear, Catalog No. 3450, Costar) and analyzed for electrical parameters in modified custom made Ussing chambers as previously reported (Fantini et al., 1989). The chamber was maintained at 37° C. on a hot plate. Apical and basal compartments were filled with electrophysiological medium: 137 mM NaCl, 5.36 mM KCl, 0.4 mM Na2HPO4, 0.8 mM MgCl2, 1.8 mM CaCl2, 20 mM N-2-hydroxyethylpiperazine-N′-2-ethanesulfonic acid (HEPES), pH 7.4. Transepithelial potential difference was measured with Ag electrodes and continuously recorded using a voltage clamp unit (Physiologic Instrument). Bipolar current pulses (20 μA for 2 s, every 30 s) were passed through Ag electrodes to measure the transepithelial resistance (TEER), which was determined according to the Ohm's law (Delézay et al., 1997b). The sodium-dependent electrogenic glucose transport activity was measured as an increase of short-circuit current (ΔIsc) following apical incubation of HT-29-D4 cells with the nonmetabolizable analog of glucose α-methylglucose (Fantini et al., 2000a). Except when indicated, purified gp120s were incubated in the apical compartment of the cell culture chamber (total volume 1.5 ml instead of 10 ml for the basal compartment of the Ussing chamber device unit).
Differentiated HT-29-D4 cells cultured in Transwell chambers were either not treated (control) or treated with 50 nM of purified gp120 (IIIB isolate) for the time indicated in serum-containing culture medium. Transepithelial resistance (TEER) values and short-circuit current variations (ΔIsc) after incubation with 3 mM α-methylglucose (sodium-dependent glucose transport activity) were measured as described in Materials and Methods. The results are expressed as the mean SD of 4 separate experiments.

[6] = test system: HT-29-D4 cells; test: Cytoskeletal organization and ultrastructure of HT-29-D4 cells (confocal, electron microscopy); assay type: cell-based, human
Method: HT-29-D4 cells grown on glass coverslips were fixed with 4% paraformaldehyde (w/v) in 0.1M phosphate buffer, pH 7.4, for 30 min at room temperature. The cells were then treated with 50 mM […] (15 min), rinsed with phosphate buffer containing 1% bovine serum albumin (BSA), and permeabilized with 0.2% Triton X-100 in phosphate buffer containing 5% BSA (30 min). For α-tubulin staining, coverslips were incubated in a humid atmosphere at 4° C. for 4 hr with the primary antibody (5 μg/ml) in phosphate buffer containing 1% BSA. After washing, the cells were incubated with fluoresecin-conjugated secondary antibodies for 90 min at 4° C. The coverslips were mounted in a Mowiol solution and analyzed by confocal microscopy (Leica TCS inverted laser scanning microscope) as previously reported (Delézay et al., 1997b). […]
The α-tubulin labeling was particularly intense in the medium part of the cells where it formed a complex network of microtubules surrounding the nucleus (a, b). […] Therefore, the presence of such cysts in HT-29-D4 cell monolayer was carefully analyzed by single staining with rhodamine-plalloidin. […]
Next, the ultrastructural changes induced by HIV-1 in differentiated HT-29-D4 cells was analyzed. […] The main ultrastructural change during incubation with virions or gp120 was the presence of intra- and inter-cellular lumina that could be detected in about 5% of the cells. […]

Compound	inhibition of gp120-induced calcium signaling, in words [1]	inhibition of gp120-induced microtubule loss [2]	interaction with GalCer film, in words [3]	time to equilibrium of surface pressure [3] [min]	TEER ([4]; 16 hr) [Q · cm^2]	TEER ([4]; 48 hr) [Q · cm^2]	TEER enhancement (relative TEER) ([4]; 20 min after addition, electrophysiological medium, n=3)	decrease of transepithelial resistance [4]	decrease of transepithelial resistance ([4]; listed as gp120 (IIIB isolate)) [%]	decrease of TEER ([4]; after 48 hr) [%]	time at which TEER had decreased to null values ([4]; continuous recording, electrophysiological medium) [h]	ΔIsc after α-methylglucose treatment ([5]; 16 hr) [μA · cm^−2]	ΔIsc after α-methylglucose treatment ([5]; 48 hr) [μA · cm^−2]	reduction of SGLT1 electrogenic activity ([5]; after 16 hr) [%]	decrease of SGLT1 activity ([5]; after 48 hr) [%]	cells with cysts / lumina ([6]; 1 hr exposure)	α-tubulin staining ([6]; 1 hr of incubation)
COc1ccc2c(c1)CC[C@@H]1[C@@H]2CC[C@]2(C)[C@@H](NCCCCCCN3C(=O)C=CC3=O)CC[C@@H]12 [U73122]	No significant gp120IIIB-induced calcium signaling; also recorded: inhibited	inhibited and not	–	–	–	–	–	–	–	–	–	–	–	–	–	–	–
gp120(IIIB): surface envelope glycoprotein purified from HIV-1(IIIB) by lectin affinity chromatography	–	–	exponential increase in the surface pressure	45	300 ± 108	320 ± 267	1.60±0.17	greater than 80%	81	74	12	0.35 ± 0.07	0.29 ± 0.11	70	80	about 5%	dramatic decrease
pertussis toxin	No significant gp120IIIB-induced calcium signaling; also recorded: inhibited	inhibited and not	–	–	–	–	–	–	–	–	–	–	–	–	–	–	–
